The values below come from patent publication US4775673A, “Substituted acylpiperazinoquinazolines and pharmaceutical compositions containing same” (priority 1983, dated 1988).

Structures are written as SMILES. Counter-ions that a name gives are not always drawn.

In general, LD50 refers to the dose at which mortality reaches 50%.

In one data set the test system is DOCA-hypertensive rats. The data set is described as follows: blood pressure reduction in nonanesthetized (conscious) DOCA-hypertensive rats. It is filed as in vivo, rat. As to the method: (§1) Of particular interest in this respect are the compounds of formula I above. The hydrochlorides of these compounds afford up to more than 15% aqueous solutions. […] In addition, the compounds of formula I are extremely non-toxic.
(§2) A typical, highly advantageous compound of the invention is the corresponding 2-methyloxypropionyl derivative of formula I, in which n is 0 and both R and R1 are methyl groups. In nonanesthesized (conscious) DOCA-hypertensive rats, this compound in an oral dose of 1 mg/kg elicits a blood pressure reduction of 20%. A dramatic reduction in blood pressure, as much as 40-50%, is observed in the same animals at a dose of 10 mg/kg p.o. Similarly, in non-anesthesized normotensive monkeys (Macaca mulatta), a dose of 3 mg/kg p.o. reduces the blood pressure by 20%. A dose of 25 mg/kg p.o. reduces blood pressure by 35 to 50% for a period of 7 to 9 hours. An intravenous administration of 2.5 mg/kg as a bolus to monkeys reduces blood pressure by 30 to 50% for 1 hour. A similar administration of 10 mg/kg i.v. elicits a blood pressure reduction of 50 to 70% for more then 7 hours. In rabbits anesthesized by pentobarbital, a dose of 25 mg/kg p.o. reduces blood pressure by 20 to 40% for a period of 4 to 5 hours. In non-anesthesized rabbits, a dose as low as 0.1 mg/kg i.v. elicits a transient but significant blood pressure reduction of almost 20%, shortly after administration. […]

For data set [1], the system named is normotensive monkeys (Macaca mulatta). The data set is described as follows: blood pressure reduction in non-anesthetized normotensive monkeys. It is filed as in vivo. Particulars: for duration of blood pressure reduction: monkeys. The procedure:
as §1
A typical, highly advantageous compound of the invention is the corresponding 2-methyloxypropionyl derivative of formula I, in which n is 0 and both R and R1 are methyl groups. In nonanesthesized (conscious) DOCA-hypertensive rats, this compound in an oral dose of 1 mg/kg elicits a blood pressure reduction of 20%. A dramatic reduction in blood pressure, as much as 40-50%, is observed in the same animals at a dose of 10 mg/kg p.o. Similarly, in non-anesthesized normotensive monkeys (Macaca mulatta), a dose of 3 mg/kg p.o. reduces the blood pressure by 20%. A dose of 25 mg/kg p.o. reduces blood pressure by 35 to 50% for a period of 7 to 9 hours. An intravenous administration of 2.5 mg/kg as a bolus to monkeys reduces blood pressure by 30 to 50% for 1 hour. A similar administration of 10 mg/kg i.v. elicits a blood pressure reduction of 50 to 70% for more then 7 hours. In rabbits anesthesized by pentobarbital, a dose of 25 mg/kg p.o. reduces blood pressure by 20 to 40% for a period of 4 to 5 hours. In non-anesthesized rabbits, a dose as low as 0.1 mg/kg i.v. elicits a transient but significant blood pressure reduction of almost 20%, shortly after administration. A dose of 1 mg/kg i.v. reduces the blood pressure by 20 to 30% for a period of more than 8 hours.

The subject of a further data set is non-anesthesized rabbits. As to the kind of experiment: blood pressure reduction in non-anesthetized rabbits. It is filed as in vivo, rabbit. The procedure: as §1, §2
Data set [2] can be described thus: acute toxicity assay in mice. Particulars: mouse, in vivo, iv, mice. It is filed as in vivo, mouse.
From the text: as §1

Another data set concerns mice. As to the kind of experiment: acute toxicity assay in mice. It is filed as in vivo, mouse. Particulars: acute toxicity assays.
From the text: as §1

Data set [3] can be described thus: acute toxicity assay in rats. Particulars: rat, in vivo, iv.
The conditions of data set [4]: prior art; cited from earlier work.
Data set [5] concerns post-synaptic alpha1 -adrenergic receptors. Particulars: prior art; cited from earlier work.
The subject of a further data set is hypertension. Particulars: prior art; cited from earlier work.

Consider `COc1cc2nc(N3CCN(C(=O)C(C)OC)CC3)nc(N)c2cc1OC` (stereo not shown) [2-methoxypropionyl derivative, 1-(4-amino-6,7-dimethoxy-2-quinazolinyl)-4-(2-methoxyproprionyl)piperazine], for which the blood pressure reduction is 20% with DOCA-hypertensive rats (1 mg/kg oral); 20% in [1] (3 mg/kg p.o., non-anesthetized monkeys); around 20% in the data set with non-anesthesized rabbits (0.1 mg/kg i.v., transient, shortly after administration). Also, the “reduction in blood pressure” value in the data set on DOCA-hypertensive rats (10 mg/kg p.o.) is 40-50%. Moreover, the “duration of blood pressure reduction” value in data set [1] (2.5 mg/kg i.v. bolus) was 1 h; in [1] (10 mg/kg i.v.), above 7 h; with non-anesthesized rabbits (1 mg/kg i.v.), “more than 8 hours”. Moreover, the LD50 in [2] was 360 mg/kg; in data set [3], 440 mg/kg. In addition, the toxicity entry in the data set on mice is reported as “extremely low in toxicity”.
On to `COc1cc2nc(N3CCN(C(=O)c4ccco4)CC3)nc(N)c2cc1OC` [Prazosin, 1-(4-amino-6,7-dimethyoxy2-quinazolinyl)-4-(2-furoyl) piperazine hydrochloride], for which the solubility in water entry in data set [4] is reported as “only slightly soluble in water”. The “blocking of post-synaptic alpha1-adrenergic receptors” value in data set [5] is “blocking the post-synaptic alpha1 -adrenergic receptors”. The antihypertensive activity result in the data set with hypertension is listed as “highly efficient antihypertensive compound”.
